Assay results published in patent US10273240B2, “Cortistatin analogues, syntheses, and uses thereof” (President and Fellows of Harvard College, priority 2015, dated 2019).
Where two headings read alike, the source gives them in different places.

Experiments:
[1] = test system: luciferase-expressing MV4;11 cells; test: MV4;11 xenotransplant model of disseminated human AML; assay type: in vivo; conditions: IP once daily for 15 days, NSG mice
Procedure: (§1) In Vivo Studies. Studies were performed at Charles River Laboratories (CRL) and Dana Farber Cancer Institute (DFCI) where indicated and approved by Harvard University and each institution's respective animal care and use committee. For pharmacokinetic studies, serial blood samples from 7 week old male CD-1 mice (n=3 per timepoint) were collected (no blinding) into K2EDTA tubes, centrifuged, transferred into 96-well plates (matrix tubes), stored at −20° C., and analysed by HPLC/MS/MS (in-life performed at CRL). Study size was determined by the need for three blood samples per timepoint with three blood samples collected per mouse. The MV4; 11 xenograft model were performed as previously described (Etchin, J. et al. Antileukemic activity of nuclear export inhibitors that spare normal hematopoietic cells. Leukemia 27, 66-74 (2013); in-life performed at DFCI) Two million MV4;11-mCLP cells were injected into the tail vein of 7-week-old female NOD-SCID-IL2Rcγ^null (NSG) mice (The Jackson Laboratory) and tumor burden was assessed by bioluminescence imaging (BLI) using an IVIS Spectrum system (Caliper Life Sciences). […] After 30 days, blood counts were obtained (Hemavet 950 F, Drew Scientific) and spleen, femur, and peripheral blood cells were collected and analysed by flow cytometry (LSR Fortessa, BD Biosciences) from 3 mice/group. […]

[2] = target: T1, CDK13 in MOLM-14 cell lysate (Homo sapiens, UniProt Q14004); test: Native kinase capture immunoblot, CDK13; assay type: binding
T1 construct: endogenous in cells; host or cells: MOLM-14 cell lysate
Procedure: (§2) Native Kinase Capture Immunoblot and Native Kinome-Wide Profiling. […] Experiment was performed twice with one immunoblot shown.

[3] = test system: subcutaneously implanted SET-2 cells; test: SET-2 subcutaneous xenotransplant model; assay type: in vivo; conditions: SCID beige mice, IP dosing daily
SKNO-1 = test: Cell growth assay, SKNO-1; assay type: cell-based; conditions: Homo sapiens, SKNO-1, 240 h
Procedure: All media was supplemented with 100 U/mL penicillin and 100 μg/mL streptomycin. Human cancer cell lines were grown in the following media: MV4; 11, K562, MOLM-14 in RPMI-1640, 10% FBS; SKNO-1 in RPMI-1640, 10% FBS, and 10 ng/mL GM-CSF; MV4;11 and K562 were from ATCC. SKNO-1 was from DSMZ.
(§3) Cell Culture. All media was supplemented with 100 U/mL penicillin and 100 μg/mL streptomycin. Human cancer cell lines were grown in the following media: MV4; 11, RS4; 11, K562, HEL, MOLM-14, MEG-01 in RPMI-1640, 10% FBS; SET-2 in RPMI-1640, 20% FBS; UKE-1 in RPMI-1640, 10% FBS, 10% horse serum and 1 μM hydrocortisone; SKNO-1 and TF-1 in RPMI-1640, 10% FBS, and 10 or 2 ng/mL GM-CSF, respectively; HaCaT in DMEM, 10% FBS; and HCT116 in McCoy's 5 A, 10% FBS (proliferation assay) or DMEM, 10% FBS (gene expression study). HepG2, MV4;11, RS4;11, MEG-01, TF-1, HCT116 and K562 were from ATCC. SKNO-1 was from DSMZ. HEL, UKE-1, and SET-2 were provided by Ross L. Levine and HaCaT, MV4;11-mCLP, and MOLM-14 by Van Wilson, Andrew L. Kung, and Scott A. Armstrong, respectively. MOLM-14 cells were authenticated by STR profiling and flow cytometry and all cell lines were routinely tested and found to be negative for mycoplasma.

HCT116 = test: Cell growth assay, HCT116 (CellTiter-Blue); assay type: cell-based; conditions: Homo sapiens
Procedure: as §3

[4] = target: T2, ROCK1 in MOLM-14 cell lysate (Homo sapiens, UniProt Q13464); test: Native kinase capture immunoblot, ROCK1; assay type: binding
T2 construct: endogenous in cells; host or cells: MOLM-14 cell lysate
Procedure: as §2

TF-1 = test: Cell growth assay, TF-1; assay type: cell-based; conditions: Homo sapiens, TF-1, 240 h; CA, after 10 days; read-out: Mean GI50 (nM), TF-1
Procedure: as §3

[5] = Pharmacokinetic study in mice; assay type: in vivo; conditions: once-daily intraperitoneal (IP) dosing
Procedure: as §1

T2 sequence (Q13464 whole entry): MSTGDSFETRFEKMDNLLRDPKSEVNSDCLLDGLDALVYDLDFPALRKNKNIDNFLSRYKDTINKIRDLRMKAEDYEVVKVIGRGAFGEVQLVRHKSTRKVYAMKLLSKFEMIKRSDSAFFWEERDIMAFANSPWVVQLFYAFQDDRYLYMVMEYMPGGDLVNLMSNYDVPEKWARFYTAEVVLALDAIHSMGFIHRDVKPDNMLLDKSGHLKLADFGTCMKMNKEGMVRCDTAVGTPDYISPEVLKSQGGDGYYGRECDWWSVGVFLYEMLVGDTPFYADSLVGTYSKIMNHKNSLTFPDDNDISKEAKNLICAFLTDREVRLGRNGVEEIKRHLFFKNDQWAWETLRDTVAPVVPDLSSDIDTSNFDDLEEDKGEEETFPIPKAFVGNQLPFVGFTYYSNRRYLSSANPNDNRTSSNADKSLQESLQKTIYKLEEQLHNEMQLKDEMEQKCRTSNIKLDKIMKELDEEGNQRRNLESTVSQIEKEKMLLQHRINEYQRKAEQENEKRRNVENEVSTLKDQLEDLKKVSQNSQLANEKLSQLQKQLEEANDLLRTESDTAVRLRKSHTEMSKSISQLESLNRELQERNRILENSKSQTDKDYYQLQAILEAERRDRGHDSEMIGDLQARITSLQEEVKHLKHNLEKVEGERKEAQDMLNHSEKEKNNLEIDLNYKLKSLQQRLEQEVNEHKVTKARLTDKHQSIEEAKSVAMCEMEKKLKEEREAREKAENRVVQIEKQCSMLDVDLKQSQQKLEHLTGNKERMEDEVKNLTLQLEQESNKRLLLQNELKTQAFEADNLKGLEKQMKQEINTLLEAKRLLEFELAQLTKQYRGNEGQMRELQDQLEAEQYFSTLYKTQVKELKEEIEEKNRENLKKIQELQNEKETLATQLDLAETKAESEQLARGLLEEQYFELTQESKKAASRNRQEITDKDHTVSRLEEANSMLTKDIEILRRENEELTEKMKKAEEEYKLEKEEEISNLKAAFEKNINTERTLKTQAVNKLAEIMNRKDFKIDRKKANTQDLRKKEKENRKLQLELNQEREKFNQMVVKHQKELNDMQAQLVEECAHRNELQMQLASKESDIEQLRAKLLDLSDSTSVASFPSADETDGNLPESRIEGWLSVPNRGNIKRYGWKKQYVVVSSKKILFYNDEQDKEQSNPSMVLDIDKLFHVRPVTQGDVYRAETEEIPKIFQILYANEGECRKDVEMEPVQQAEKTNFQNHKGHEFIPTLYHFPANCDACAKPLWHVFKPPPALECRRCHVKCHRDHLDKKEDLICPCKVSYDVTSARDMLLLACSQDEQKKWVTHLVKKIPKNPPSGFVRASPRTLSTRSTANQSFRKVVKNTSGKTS
T1 sequence (Q14004 whole entry): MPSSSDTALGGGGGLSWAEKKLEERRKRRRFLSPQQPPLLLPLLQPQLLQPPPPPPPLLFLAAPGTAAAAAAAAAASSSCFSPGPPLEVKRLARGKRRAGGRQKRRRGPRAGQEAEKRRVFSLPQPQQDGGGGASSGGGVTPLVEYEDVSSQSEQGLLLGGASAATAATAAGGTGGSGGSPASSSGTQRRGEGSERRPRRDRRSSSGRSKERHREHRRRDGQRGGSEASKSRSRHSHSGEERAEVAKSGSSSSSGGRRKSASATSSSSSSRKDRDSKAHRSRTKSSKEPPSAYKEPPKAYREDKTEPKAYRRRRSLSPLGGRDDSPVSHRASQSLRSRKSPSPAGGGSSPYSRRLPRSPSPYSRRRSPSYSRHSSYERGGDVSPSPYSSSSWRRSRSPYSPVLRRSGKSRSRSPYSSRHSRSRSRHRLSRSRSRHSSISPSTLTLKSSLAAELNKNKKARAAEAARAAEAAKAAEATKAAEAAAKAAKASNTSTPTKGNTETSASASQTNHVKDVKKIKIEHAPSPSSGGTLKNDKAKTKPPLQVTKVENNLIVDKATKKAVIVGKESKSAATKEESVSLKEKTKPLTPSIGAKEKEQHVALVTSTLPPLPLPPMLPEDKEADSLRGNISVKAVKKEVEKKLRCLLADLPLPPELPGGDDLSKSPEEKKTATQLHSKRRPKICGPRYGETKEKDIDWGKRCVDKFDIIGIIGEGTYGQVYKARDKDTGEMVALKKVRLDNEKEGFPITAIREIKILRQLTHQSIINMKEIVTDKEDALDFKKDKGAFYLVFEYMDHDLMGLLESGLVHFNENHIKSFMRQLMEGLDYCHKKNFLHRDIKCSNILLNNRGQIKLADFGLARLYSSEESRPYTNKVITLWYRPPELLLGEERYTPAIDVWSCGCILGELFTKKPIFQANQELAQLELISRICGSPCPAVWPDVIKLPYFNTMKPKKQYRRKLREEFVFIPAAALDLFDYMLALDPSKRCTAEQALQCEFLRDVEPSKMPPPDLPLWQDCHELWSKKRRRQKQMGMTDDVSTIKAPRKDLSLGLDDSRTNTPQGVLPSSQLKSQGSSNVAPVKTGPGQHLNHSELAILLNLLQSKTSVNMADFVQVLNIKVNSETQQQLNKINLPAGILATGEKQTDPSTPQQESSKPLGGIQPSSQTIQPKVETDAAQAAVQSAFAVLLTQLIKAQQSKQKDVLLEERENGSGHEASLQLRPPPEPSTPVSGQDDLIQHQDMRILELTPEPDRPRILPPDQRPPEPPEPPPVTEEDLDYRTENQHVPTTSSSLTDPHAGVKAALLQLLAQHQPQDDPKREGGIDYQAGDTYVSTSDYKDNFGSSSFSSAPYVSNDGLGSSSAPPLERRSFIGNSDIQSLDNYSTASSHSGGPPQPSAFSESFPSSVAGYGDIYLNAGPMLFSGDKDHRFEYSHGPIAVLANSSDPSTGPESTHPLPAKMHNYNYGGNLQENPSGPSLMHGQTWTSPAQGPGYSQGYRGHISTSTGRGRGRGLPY
T1 sequence (O75909 whole entry partner): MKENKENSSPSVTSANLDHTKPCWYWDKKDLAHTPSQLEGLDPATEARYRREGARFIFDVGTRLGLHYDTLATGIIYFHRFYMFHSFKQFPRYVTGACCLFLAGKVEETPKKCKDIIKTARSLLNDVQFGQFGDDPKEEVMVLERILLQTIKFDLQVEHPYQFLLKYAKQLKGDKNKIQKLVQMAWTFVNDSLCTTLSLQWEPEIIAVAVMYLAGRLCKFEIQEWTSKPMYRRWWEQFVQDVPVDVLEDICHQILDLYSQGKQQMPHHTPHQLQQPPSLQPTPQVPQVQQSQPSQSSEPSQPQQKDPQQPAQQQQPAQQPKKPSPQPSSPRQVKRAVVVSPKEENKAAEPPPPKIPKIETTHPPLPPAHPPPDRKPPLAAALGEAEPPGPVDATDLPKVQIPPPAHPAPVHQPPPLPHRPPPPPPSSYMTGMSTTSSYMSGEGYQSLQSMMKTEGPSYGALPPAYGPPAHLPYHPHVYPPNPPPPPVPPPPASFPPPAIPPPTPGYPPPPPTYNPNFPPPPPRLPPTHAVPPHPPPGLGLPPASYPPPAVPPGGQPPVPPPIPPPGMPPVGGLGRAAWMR

In the case of `CN(C)[C@H]1C[C@@]23CC[C@@]4(O2)C(=CC[C@@]2(C)[C@@H](c5ccc6ccncc6c5)CC[C@H]24)C=C3[C@@H](O)[C@@H]1O` [CA, cortistatin A], the “disease progression (bioluminescence, spleen weight, leukemia cell burden, survival)” value [1] is reported as “dose-dependent reduction in disease progression”, the “median extension in survival” value [1] is reported as 29.5 days and the “binding of CDK13 (no binding at up to)” value [2] is reported as > 2500 nM. For the same molecule, the body weight [3] was “no loss in body weight”, the tumor volume reduction [3] was 71% and the GI50 (SKNO-1; CA, after 10 days, read-out: Mean GI50 (nM), SKNO-1) was 1 nM. For the same molecule, the GI50 (SKNO-1; read-out: SKNO-1 GI50 day 10) was < 0.4 nM, the GI50 (HCT116; HCT-116, 168 h, after 7 days, read-out: Mean GI50 (nM), HCT116) was > 1000 nM and the GI50 (HCT116; HCT-116, Table 5, read-out: GI50 (nM), HCT116) was > 1000 nM. For the same molecule, the “binding of ROCK1 (no binding up to)” value [4] was > 2500 nM, the GI50 (TF-1) was 350 nM and the pharmacokinetic properties [5] was “acceptable pharmacokinetic properties”.
